Results on one molecule are retold here after article PMC10628242, “Enzymatic β-elimination in natural product O- and C-glycoside deglycosylation” (Nature Communications, 2023).

The test addresses T1, PuCGE (human intestinal bacterium PUE, UniProt A0A3Q9WUX0+A0A3Q9WXL1, A0A3Q9WUX0:Y39F).
T1 construct: gene dgpC; heterodimer alpha (39,205 Da) + beta (18,313 Da), co-expressed from pET-Duet-1 in E. coli; N-terminal Strep-tag II; Mn2+ enzyme
T1 sequence (A0A3Q9WXL1 1-324): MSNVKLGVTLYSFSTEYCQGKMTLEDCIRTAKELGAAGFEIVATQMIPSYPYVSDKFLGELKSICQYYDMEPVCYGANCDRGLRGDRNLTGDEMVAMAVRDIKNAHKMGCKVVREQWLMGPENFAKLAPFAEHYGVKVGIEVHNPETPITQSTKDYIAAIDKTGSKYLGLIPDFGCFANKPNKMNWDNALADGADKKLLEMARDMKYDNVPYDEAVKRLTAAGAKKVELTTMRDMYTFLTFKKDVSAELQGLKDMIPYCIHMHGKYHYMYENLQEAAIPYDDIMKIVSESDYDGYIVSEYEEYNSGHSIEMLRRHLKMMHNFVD
T1 sequence (A0A3Q9WUX0 1-142 Y39F): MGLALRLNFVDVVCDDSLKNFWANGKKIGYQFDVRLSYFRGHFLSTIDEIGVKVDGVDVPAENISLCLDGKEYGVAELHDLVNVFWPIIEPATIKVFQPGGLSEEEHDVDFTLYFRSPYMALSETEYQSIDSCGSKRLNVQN
In words: HPLC of aglycone release. The following applies: 2.0 mM substrate; potassium phosphate pH 6.0, 37 °C; text puts Tyr39 in beta, plasmid name puts Y39F on alpha. Type of test: biochemical.

As to `O=C(CCc1ccc(O)cc1)c1c(O)cc(O)cc1O[C@@H]1O[C@H](CO)[C@@H](O)C(=O)[C@H]1O` [3-keto-phlorizin, 3,5-dihydroxy-2-[3-(4-hydroxyphenyl)-1-oxopropyl]phenyl β-D-ribo-hexopyranosid-3-ulose], the “HPLC of aglycone release” value is “The mutated PuCGE exhibits only a minor loss of 3-keto-phlorizin activity”.
